{
  "source": "ChEMBL document CHEMBL5046228",
  "about": "(Eur J Med Chem, 2022)",
  "key": {"[1]": {"biological_target": "Epidermal growth factor receptor (Homo sapiens, UniProt P00533, EX19DEL)", "sequence (P00533 whole entry, looked up, stated change not applied)": "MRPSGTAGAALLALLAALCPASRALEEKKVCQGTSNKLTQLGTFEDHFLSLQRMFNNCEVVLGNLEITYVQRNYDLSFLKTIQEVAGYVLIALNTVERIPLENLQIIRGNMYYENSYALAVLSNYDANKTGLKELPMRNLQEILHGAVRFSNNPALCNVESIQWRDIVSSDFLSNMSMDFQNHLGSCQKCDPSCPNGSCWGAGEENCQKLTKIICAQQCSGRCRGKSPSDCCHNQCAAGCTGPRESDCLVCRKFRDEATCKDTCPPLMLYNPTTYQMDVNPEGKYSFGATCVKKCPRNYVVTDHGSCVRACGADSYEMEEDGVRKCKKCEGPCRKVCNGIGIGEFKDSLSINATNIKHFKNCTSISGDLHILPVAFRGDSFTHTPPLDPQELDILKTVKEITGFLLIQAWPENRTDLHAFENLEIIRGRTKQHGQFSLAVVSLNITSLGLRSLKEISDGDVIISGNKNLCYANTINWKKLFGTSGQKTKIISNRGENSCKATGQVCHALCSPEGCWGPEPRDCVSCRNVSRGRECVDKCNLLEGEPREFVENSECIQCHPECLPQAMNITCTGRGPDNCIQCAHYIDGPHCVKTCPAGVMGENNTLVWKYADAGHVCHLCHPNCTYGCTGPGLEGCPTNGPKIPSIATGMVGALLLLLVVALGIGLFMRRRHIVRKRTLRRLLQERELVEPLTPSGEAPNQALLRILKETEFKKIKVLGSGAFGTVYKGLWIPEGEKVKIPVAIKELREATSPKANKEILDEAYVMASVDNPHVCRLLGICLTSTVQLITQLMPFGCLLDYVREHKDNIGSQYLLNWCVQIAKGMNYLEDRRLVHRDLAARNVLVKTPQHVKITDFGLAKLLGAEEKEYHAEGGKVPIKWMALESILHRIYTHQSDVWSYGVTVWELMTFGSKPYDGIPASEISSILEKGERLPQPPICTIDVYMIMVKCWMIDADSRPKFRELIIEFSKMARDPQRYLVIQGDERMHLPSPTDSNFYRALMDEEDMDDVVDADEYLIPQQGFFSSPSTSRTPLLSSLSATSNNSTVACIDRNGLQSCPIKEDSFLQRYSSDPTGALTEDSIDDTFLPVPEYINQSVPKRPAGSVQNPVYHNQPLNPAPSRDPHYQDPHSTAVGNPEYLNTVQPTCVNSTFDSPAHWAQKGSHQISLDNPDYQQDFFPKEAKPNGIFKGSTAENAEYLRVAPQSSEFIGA", "assay": "Inhibition of EGFR del19 (unknown origin) using flurogenic substrate in presence of ATP by HTRF assay"}, "[2]": {"assay": "Selectivity index, ratio of IC50 Inhibition of wild type EGFR (unknown origin) to IC50 for Inhibition of EGFR T790M/C797S double mutant (unknown origin)"}, "A549": {"test_system": "A549", "assay": "Antiproliferative activity against human A549 cells expressing wild type EGFR assessed as inhibition in cell viability after 72 hrs by CCK8 assay", "assay_type": "functional, cell-based", "conditions": "A549, 72 h"}, "NCI-H1299 [3]": {"test_system": "NCI-H1299", "assay": "Induction of cell cycle arrest in human NCI-H1299 cells assessed as accumulation at G0/G1 phase at 0.02 uM after 36 hrs by PI staining based flow cytometry analysis (reference value: 70.2%)", "assay_type": "functional"}, "NCI-H1299 [4]": {"test_system": "NCI-H1299", "assay": "Induction of cell cycle arrest in human NCI-H1299 cells assessed as accumulation at G2/M phase at 0.02 uM after 36 hrs by PI staining based flow cytometry analysis (reference value: 5.6%)", "assay_type": "functional"}, "NCI-H1299 [5]": {"test_system": "NCI-H1299", "assay": "Induction of cell cycle arrest in human NCI-H1299 cells assessed as accumulation at G0/G1 phase at 0.1 uM after 36 hrs by PI staining based flow cytometry analysis (reference value: 70.2%)", "assay_type": "functional"}, "NCI-H1299 [6]": {"test_system": "NCI-H1299", "assay": "Induction of cell cycle arrest in human NCI-H1299 cells assessed as accumulation at G2/M phase at 0.5 uM after 36 hrs by PI staining based flow cytometry analysis (reference value: 5.6%)", "assay_type": "functional"}, "NCI-H1299 [7]": {"test_system": "NCI-H1299", "assay": "Induction of cell cycle arrest in human NCI-H1299 cells assessed as accumulation at S phase at 0.5 uM after 36 hrs by PI staining based flow cytometry analysis (reference value: 24.8%)", "assay_type": "functional"}, "NCI-H1299 [8]": {"test_system": "NCI-H1299", "assay": "Induction of cell cycle arrest in human NCI-H1299 cells assessed as accumulation at G0/G1 phase at 2.5 uM after 36 hrs by PI staining based flow cytometry analysis (reference value: 70.2%)", "assay_type": "functional"}, "NCI-H1975 [9]": {"test_system": "NCI-H1975", "assay": "Induction of cell cycle arrest in human NCI-H1975 cells assessed as accumulation at G0/G1 phase at 0.02 uM after 36 hrs by PI staining based flow cytometry analysis (reference value: 24.2%)", "assay_type": "functional"}, "NCI-H1975 [10]": {"test_system": "NCI-H1975", "assay": "Induction of cell cycle arrest in human NCI-H1975 cells assessed as accumulation at G2/M phase at 0.1 uM after 36 hrs by PI staining based flow cytometry analysis (reference value: 43.1%)", "assay_type": "functional"}, "NCI-H1975 [11]": {"test_system": "NCI-H1975", "assay": "Induction of cell cycle arrest in human NCI-H1975 cells assessed as accumulation at S phase at 0.1 uM after 36 hrs by PI staining based flow cytometry analysis (reference value: 32.7 %)", "assay_type": "functional"}, "NCI-H1975 [12]": {"test_system": "NCI-H1975", "assay": "Induction of cell cycle arrest in human NCI-H1975 cells assessed as accumulation at G0/G1 phase at 0.5 uM after 36 hrs by PI staining based flow cytometry analysis (reference value: 24.2%)", "assay_type": "functional"}, "NCI-H1975 [13]": {"test_system": "NCI-H1975", "assay": "Induction of cell cycle arrest in human NCI-H1975 cells assessed as accumulation at G2/M phase at 0.5 uM after 36 hrs by PI staining based flow cytometry analysis (reference value: 43.1%)", "assay_type": "functional"}, "NCI-H1975 [14]": {"test_system": "NCI-H1975", "assay": "Induction of cell cycle arrest in human NCI-H1975 cells assessed as accumulation at S phase at 0.5 uM after 36 hrs by PI staining based flow cytometry analysis (reference value: 32.7 %)", "assay_type": "functional"}, "NCI-H1975 [15]": {"test_system": "NCI-H1975", "assay": "Induction of cell cycle arrest in human NCI-H1975 cells assessed as accumulation at G2/M phase at 2.5 uM after 36 hrs by PI staining based flow cytometry analysis (reference value: 43.1%)", "assay_type": "functional"}, "NCI-H1975 [16]": {"test_system": "NCI-H1975", "assay": "Induction of cell cycle arrest in human NCI-H1975 cells assessed as accumulation at S phase at 2.5 uM after 36 hrs by PI staining based flow cytometry analysis (reference value: 32.7 %)", "assay_type": "functional"}, "NCI-H1299 [17]": {"test_system": "NCI-H1299", "assay": "Induction of apoptosis in human NCI-H1299 cells assessed as increase in viable cells at 0.02 uM after 36 hrs by annexin-V-FITC/PI staining based flow cytometric analysis (reference value: 94.1%)", "assay_type": "functional"}, "NCI-H1299 [18]": {"test_system": "NCI-H1299", "assay": "Induction of apoptosis in human NCI-H1299 cells assessed as increase in late apoptotic cells at 0.02 uM after 36 hrs by annexin-V-FITC/PI staining based flow cytometric analysis (reference value: 4.39%)", "assay_type": "functional"}, "NCI-H1299 [19]": {"test_system": "NCI-H1299", "assay": "Induction of apoptosis in human NCI-H1299 cells assessed as increase in early apoptotic cells at 0.1 uM after 36 hrs by annexin-V-FITC/PI staining based flow cytometric analysis (reference value: 0.79%)", "assay_type": "functional"}, "NCI-H1299 [20]": {"test_system": "NCI-H1299", "assay": "Induction of apoptosis in human NCI-H1299 cells assessed as increase in necrotic cells at 0.1 uM after 36 hrs by annexin-V-FITC/PI staining based flow cytometric analysis (reference value: 0.75%)", "assay_type": "functional"}, "NCI-H1299 [21]": {"test_system": "NCI-H1299", "assay": "Induction of apoptosis in human NCI-H1299 cells assessed as increase in viable cells at 0.5 uM after 36 hrs by annexin-V-FITC/PI staining based flow cytometric analysis (reference value: 94.1%)", "assay_type": "functional"}, "NCI-H1299 [22]": {"test_system": "NCI-H1299", "assay": "Induction of apoptosis in human NCI-H1299 cells assessed as increase in early apoptotic cells at 0.5 uM after 36 hrs by annexin-V-FITC/PI staining based flow cytometric analysis (reference value: 0.79%)", "assay_type": "functional"}, "NCI-H1299 [23]": {"test_system": "NCI-H1299", "assay": "Induction of apoptosis in human NCI-H1299 cells assessed as increase in viable cells at 2.5 uM after 36 hrs by annexin-V-FITC/PI staining based flow cytometric analysis (reference value: 94.1%)", "assay_type": "functional"}, "NCI-H1299 [24]": {"test_system": "NCI-H1299", "assay": "Induction of apoptosis in human NCI-H1299 cells assessed as increase in late apoptotic cells at 2.5 uM after 36 hrs by annexin-V-FITC/PI staining based flow cytometric analysis (reference value: 4.39%)", "assay_type": "functional"}, "NCI-H1299 [25]": {"test_system": "NCI-H1299", "assay": "Induction of apoptosis in human NCI-H1299 cells assessed as increase in necrotic cells at 2.5 uM after 36 hrs by annexin-V-FITC/PI staining based flow cytometric analysis (reference value: 0.75%)", "assay_type": "functional"}, "NCI-H1975 [26]": {"test_system": "NCI-H1975", "assay": "Induction of apoptosis in human NCI-H1975 cells assessed as increase in necrotic cells at 0.1 uM after 36 hrs by annexin-V-FITC/PI staining based flow cytometric analysis (reference value: 0.35%)", "assay_type": "functional"}, "NCI-H1975 [27]": {"test_system": "NCI-H1975", "assay": "Induction of apoptosis in human NCI-H1975 cells assessed as increase in early apoptotic cells at 0.5 uM after 36 hrs by annexin-V-FITC/PI staining based flow cytometric analysis (reference value: 1.24%)", "assay_type": "functional"}, "NCI-H1975 [28]": {"test_system": "NCI-H1975", "assay": "Induction of apoptosis in human NCI-H1975 cells assessed as increase in viable cells at 2.5 uM after 36 hrs by annexin-V-FITC/PI staining based flow cytometric analysis (reference value: 94.6%)", "assay_type": "functional"}, "NCI-H1975 [29]": {"test_system": "NCI-H1975", "assay": "Induction of apoptosis in human NCI-H1975 cells assessed as increase in early apoptotic cells at 2.5 uM after 36 hrs by annexin-V-FITC/PI staining based flow cytometric analysis (reference value: 1.24%)", "assay_type": "functional"}, "in vitro [30]": {"assay": "in vitro", "conditions": "human"}, "in vitro [31]": {"assay": "in vitro", "conditions": "human", "remark": "listed apart in the source"}},
  "data": [
    {"smiles": "C#CCN(C)CCN(C)c1cc(OC)c(Nc2nccc(Nc3cn(C)c4ccccc34)n2)cc1NC(=O)C=C", "values": [
      {"measurement": "IC50", "setting": "[1]", "result": 9.57, "unit": "nM"},
      {"measurement": "Ratio IC50", "setting": "[2]", "result": "> 2490"},
      {"measurement": "IC50", "setting": "A549", "result": "> 100000", "unit": "nM"},
      {"measurement": "Activity", "setting": "NCI-H1299 [3]", "result": 70.4, "unit": "%"},
      {"measurement": "Activity", "setting": "NCI-H1299 [4]", "result": 6.8, "unit": "%"},
      {"measurement": "Activity", "setting": "NCI-H1299 [5]", "result": 70.6, "unit": "%"},
      {"measurement": "Activity", "setting": "NCI-H1299 [6]", "result": 6, "unit": "%"},
      {"measurement": "Activity", "setting": "NCI-H1299 [7]", "result": 25.6, "unit": "%"},
      {"measurement": "Activity", "setting": "NCI-H1299 [8]", "result": 67.5, "unit": "%"},
      {"measurement": "Activity", "setting": "NCI-H1975 [9]", "result": 22.5, "unit": "%"},
      {"measurement": "Activity", "setting": "NCI-H1975 [10]", "result": 58.2, "unit": "%"},
      {"measurement": "Activity", "setting": "NCI-H1975 [11]", "result": 22.7, "unit": "%"},
      {"measurement": "Activity", "setting": "NCI-H1975 [12]", "result": 18.3, "unit": "%"},
      {"measurement": "Activity", "setting": "NCI-H1975 [13]", "result": 62.6, "unit": "%"},
      {"measurement": "Activity", "setting": "NCI-H1975 [14]", "result": 19.1, "unit": "%"},
      {"measurement": "Activity", "setting": "NCI-H1975 [15]", "result": 64.6, "unit": "%"},
      {"measurement": "Activity", "setting": "NCI-H1975 [16]", "result": 18.4, "unit": "%"},
      {"measurement": "Activity", "setting": "NCI-H1299 [17]", "result": 93.1, "unit": "%"},
      {"measurement": "Activity", "setting": "NCI-H1299 [18]", "result": 5.17, "unit": "%"},
      {"measurement": "Activity", "setting": "NCI-H1299 [19]", "result": 1.06, "unit": "%"},
      {"measurement": "Activity", "setting": "NCI-H1299 [20]", "result": 0.63, "unit": "%"},
      {"measurement": "Activity", "setting": "NCI-H1299 [21]", "result": 92.6, "unit": "%"},
      {"measurement": "Activity", "setting": "NCI-H1299 [22]", "result": 1.01, "unit": "%"},
      {"measurement": "Activity", "setting": "NCI-H1299 [23]", "result": 92.1, "unit": "%"},
      {"measurement": "Activity", "setting": "NCI-H1299 [24]", "result": 6.35, "unit": "%"},
      {"measurement": "Activity", "setting": "NCI-H1299 [25]", "result": 0.6, "unit": "%"},
      {"measurement": "Activity", "setting": "NCI-H1975 [26]", "result": 0.019, "unit": "%"},
      {"measurement": "Activity", "setting": "NCI-H1975 [27]", "result": 12.2, "unit": "%"},
      {"measurement": "Activity", "setting": "NCI-H1975 [28]", "result": 47.3, "unit": "%"},
      {"measurement": "Activity", "setting": "NCI-H1975 [29]", "result": 45.4, "unit": "%"},
      {"measurement": "selectivity ratio", "setting": "in vitro [30]", "result": 38800},
      {"measurement": "selectivity ratio", "setting": "in vitro [31]", "result": 27500}
    ]}
  ]
}
